Measurements published in paper PMC6759624, “Unraveling Heparan Sulfate Proteoglycan Binding Motif for Cancer Cell Selectivity” (Frontiers in Oncology, 2019).
“Also recorded” adds a separate entry of the source.

Key:
[1] = system: HT-29 human colon adenocarcinoma; assay: NT4 binding to cells by flow cytometry; assay type: cell-based; details: 1 μM NT4-biotin
Method: (§1) PANC-1 human pancreas adenocarcinoma, HT-29 human colon adenocarcinoma, and MCF-7 and MDA-MB-231 human breast adenocarcinoma cells were grown in the recommended American Type Culture Collection (ATCC) media, supplemented with 10% fetal calf serum, 200 μg/ml glutamine, 100 μg/ml streptomycin, 60 μg/ml penicillin, and maintained at 37°C, 5% CO2. Cell lines were purchased from ATCC, and cell profiling was analyzed to authenticate human cell lines (BMR Genomics).
(§2) All experiments were performed using 2 × 10^5 cells in 96-well U-bottom plates. All dilutions were performed in phosphate-buffered saline (PBS), containing 5 mM EDTA and 1% bovine serum albumin (BSA).
(§3) Cells were incubated with 1 μM NT4-biotin for 30 min at room temperature and then incubated with 1 μg/ml streptavidin–fluorescein isothiocyanate (FITC). For heparinase treatment, cells were incubated for 1 h at 37°C on the plates with 0.03 IU/ml heparinase I/III blend (Sigma Aldrich), and then harvested and incubated with the same concentration of heparinase in suspension for an additional hour at 37°C before NT4 staining. All experiments were repeated two times. P values were calculated using a two-tailed Student t-test and GraphPad Prism 5.0 software.

[2] = system: PANC-1 human pancreas adenocarcinoma; assay: NT4 binding to cells by flow cytometry; assay type: cell-based; details: 1 μM NT4-biotin
Method: as §1, §2, §3

[3] = system: MDA-MB-231 human breast adenocarcinoma; assay: NT4 binding to cells by flow cytometry; assay type: cell-based; details: heparinase I/III blend 0.03 IU/ml, 1 h + 1 h at 37°C, 1 μM NT4-biotin, 30 min, room temperature, streptavidin–FITC, repeated two times
Method: as §1, §2, §3

[4] = system: MCF-7 human breast adenocarcinoma; assay: NT4 binding to cells by flow cytometry; assay type: cell-based; details: heparinase I/III blend 0.03 IU/ml, 1 h + 1 h at 37°C, 1 μM NT4-biotin, 30 min, room temperature, streptavidin–FITC, repeated two times
Method: as §1, §2, §3

[5] = system: HT-29, PANC-1, MCF-7, and MDA-MB-231 cells; assay: NT4 cell binding versus sulfatase expression in cell panel; assay type: cell-based, human; details: SULF-1 and SULF-2 expression (RT-PCR; SULF-1 also Western blot) versus flow cytometry binding
Method: PANC-1 human pancreas adenocarcinoma, HT-29 human colon adenocarcinoma, and MCF-7 and MDA-MB-231 human breast adenocarcinoma cells were grown in the recommended American Type Culture Collection (ATCC) media, supplemented with 10% fetal calf serum, 200 μg/ml glutamine, 100 μg/ml streptomycin, 60 μg/ml penicillin, and maintained at 37°C, 5% CO2. Cell lines were purchased from ATCC, and cell profiling was analyzed to authenticate human cell lines (BMR Genomics). All experiments were performed using 2 × 10^5 cells in 96-well U-bottom plates. All dilutions were performed in phosphate-buffered saline (PBS), containing 5 mM EDTA and 1% bovine serum albumin (BSA). […] P values were calculated using a two-tailed Student t-test and GraphPad Prism 5.0 software. […] RNA was quantified by spectrophotometry at 260 and 280 nm and verified by agarose gel electrophoresis. The same quantity of RNA for every cell line was loaded on the gel. […] Signals were detected using Image LAS4010 (GE Healthcare). […] P values were calculated using a one-tailed Student t-test and GraphPad Prism 5.0 software. […] Signals were detected using Image LAS4010 (GE Healthcare). […] P values were calculated using a parametric, unpaired Student t-test, and GraphPad Prism 5.0 software.

[6] = system: pancreas adenocarcinoma cells; details: ref [13]; cited from earlier work
Excerpt: (§4) NT4 peptides can be conjugated with different functional units and can selectively deliver drugs for cancer therapy or transport tracers for tumor imaging ([11], [12], [15]–[18]). […] NT4 transports the chemotherapeutic moiety to the cancer cell membrane and, ultimately, into the cell ([14]–[16]). In animal models of cancer, the higher concentration of the cytotoxic drug at the site of the tumo ...

breast cancer cells = details: ref [13], [20]; cited from earlier work
Excerpt: as §4

(pyELYENKPRRPYIL)4K2K-beta-Ala [NT4]
NT4 cell binding relative to other cell lines ([1]; HT-29 (low sulfatase expression) versus MCF-7 and MDA-MB-231, flow cytometry): bind NT4 better than the others; also recorded: higher in cell lines with lower expression of sulfatases
NT4 binding after heparinase treatment ([1]; HT-29, heparinase I/III blend 0.03 IU/ml, 1 h + 1 h at 37°C, 30 min, room temperature, streptavidin–FITC, repeated two times): much lower than to control cells
NT4 cell binding relative to other cell lines ([2]; PANC-1 (low sulfatase expression) versus MCF-7 and MDA-MB-231, flow cytometry): bind NT4 better than the others; also recorded: higher in cell lines with lower expression of sulfatases
NT4 binding after heparinase treatment ([2]; PANC-1, heparinase I/III blend 0.03 IU/ml, 1 h + 1 h at 37°C, 30 min, room temperature, streptavidin–FITC, repeated two times): much lower than to control cells
NT4 binding after heparinase treatment [3]: much lower than to control cells
NT4 binding after heparinase treatment [4]: much lower than to control cells
correlation of NT4 binding with sulfatase expression [5]: inversely correlated with sulfatase expression; also recorded: inversely correlated with expression of sulfatases
effect on oriented migration [6]: inhibited
effect on growth factor-induced migration and invasiveness (breast cancer cells): inhibited
